Test system: HeLa cells
Assay: Fluorescence microscopy assay of cell permeability
Format: cell-based
Settings: 5 mM, 1 hour, streptavidin-Cy5
Description: The cells were then incubated in serum free media for 2 hours, followed by incubation with APB (5 mM) in serum free media (500 μL) for 1 hour. […] Cells were incubate with paraformaldehyde (4%, 500 μL) for 20 minutes at room temperature, then washed with 1×PBS (500 μL) three times. […] Streptavidin Cy5 (10 ug/mL) in blocking buffer (50 μL) was added and incubated with cells for 30 minutes. […] Cells were incubated with DAPI (100 μg/mL) for 5 minutes, followed by washing with 1×PBS (500 μL) 3 times each for 5 min. The cover slips were washed in water then installed on a glass slide containing Mowiol mounting solution (50 μL, Sigma Aldrich) saturated with DABCO (Sigma Aldrich). The slide was incubate at 31° C. for 30 minutes, and then kept at 4° C. until microscopy. Fluorescence photos were generated on an Olympus fluorescence microscope using laser wavelengths corresponding to DAPI (350 nm) and Cy5 (650 nm). DAPI photos were generated at 10 ms and Cy5 at 200 ms. Merged images were created using Adobe Photoshop.

Nc1ncnc2c1ncn2[C@@H]1O[C@H](COP(=O)(O)OP(=O)(O)OP(=O)(O)O)[C@@H](O)[C@H]1O [ATP, adenosine-5′-triphosphate, reference compound]
biotin fluorescence signal in cells (cell permeability): no biotin signal
